Our source for the IC50 values is patent publication US7598258B2, “Quinoline derivatives and quinazoline derivatives inhibiting autophosphorylation of macrophage colony stimulating factor receptor” (Kirin Beer Kabushiki Kaisha, priority 2002, dated 2009).

The target in this experiment is T1, mouse c-fms (Mus musculus, UniProt P09581).
T1 construct: Macrophage-like cell line BAC-1.2F5 which expresses c-fms as a M-CSF receptor on cell membranes; endogenous in cells; host or cells: BAC-1.2F5 mouse macrophage-like cell line
T1 sequence (P09581 20-977): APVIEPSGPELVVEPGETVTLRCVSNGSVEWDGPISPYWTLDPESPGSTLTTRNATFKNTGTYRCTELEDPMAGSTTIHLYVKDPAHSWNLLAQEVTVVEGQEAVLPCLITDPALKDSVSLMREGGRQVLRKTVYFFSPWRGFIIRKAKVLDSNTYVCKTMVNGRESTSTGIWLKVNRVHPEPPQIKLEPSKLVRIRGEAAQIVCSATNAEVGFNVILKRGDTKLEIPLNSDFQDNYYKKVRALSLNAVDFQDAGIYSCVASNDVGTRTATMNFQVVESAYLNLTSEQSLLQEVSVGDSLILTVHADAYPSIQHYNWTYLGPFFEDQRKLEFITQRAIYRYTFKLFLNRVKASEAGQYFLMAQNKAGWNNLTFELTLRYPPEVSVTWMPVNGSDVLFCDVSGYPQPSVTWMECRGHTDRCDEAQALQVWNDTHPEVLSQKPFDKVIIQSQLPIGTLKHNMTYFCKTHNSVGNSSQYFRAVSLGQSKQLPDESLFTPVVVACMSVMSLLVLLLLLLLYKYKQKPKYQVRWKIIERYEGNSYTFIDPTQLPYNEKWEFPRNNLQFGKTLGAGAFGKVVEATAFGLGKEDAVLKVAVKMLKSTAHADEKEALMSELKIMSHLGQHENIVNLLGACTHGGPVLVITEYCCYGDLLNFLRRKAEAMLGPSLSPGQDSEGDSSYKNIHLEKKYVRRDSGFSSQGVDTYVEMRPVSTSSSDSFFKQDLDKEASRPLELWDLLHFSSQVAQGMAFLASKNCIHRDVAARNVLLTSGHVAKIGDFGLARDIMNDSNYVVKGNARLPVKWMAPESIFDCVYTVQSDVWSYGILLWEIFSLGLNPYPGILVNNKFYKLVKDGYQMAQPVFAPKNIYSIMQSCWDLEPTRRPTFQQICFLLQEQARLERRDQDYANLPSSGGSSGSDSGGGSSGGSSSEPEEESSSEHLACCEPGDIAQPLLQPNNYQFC
The experiment can be described thus: Inhibition of c-fms autophosphorylation in macrophage-like cell line BAC-1.2F5 by M-CSF stimulation (ELISA). The note with it: BAC-1.2F5 cells, human recombinant M-CSF 50 ng/ml, read-out: c-fms autophosphorylation 50% inhibitory concentration (IC50). Format: cell-based. As to the method: Macrophage-like cell line BAC-1.2F5 which expresses c-fms as a M-CSF receptor on cell membranes (CLAUDIA M. et al., J. Cell. Physiol., 130, 420-427 (1987), “Isolation and Characterization of a Cloned Growth Factor Dependent Macrophage Cell Line, BAC1.2F5”) was cultured at 37° C. in a DMEM medium containing L-cell supernatant and 10% fetal calf serum (GIBCO BRL) in a 5% CO2 incubator until about 50 to 70% confluent. The harvested cells were inoculated into wells, each containing the same medium, in a collagen type I coat 96-well flat-bottom plate in an amount of 5.0×10^4 per well, and cultured at 37° C. for 12 hr. Thereafter, the medium was replaced with a DMEM medium containing a 0.1% fetal calf serum and cultured for 12 hr. Thereafter, a test compound dissolved in dimethyl sulfoxide was added to each well, and cells were incubated at 37° C. for one hr. Human recombinant M-CSF was added to a final concentration of 50 ng/ml, and cells were stimulated at 37° C. for 6 min. After the medium was removed, 50 μl of a solubilization buffer (20 mM HEPES (pH 7.4), 150 mM NaCl, 0.2% Triton X-100, 10% glycerol, 5 mM sodium orthovanadylate, 5 mM disodium ethylenediaminetetraacetate, and 2 mM Na4P2O7) was added thereto. The mixture was shaken at 4° C. for 2 hr to prepare a cell extract as an assay sample which was then used for an ELISA assay.
The plate for the ELISA assay was prepared as follows. Phosphate buffered saline (50 μl, pH 7.4) containing 5 μg/ml of anti-phospho-tyrosine antibody (PY20; Transduction Laboratories) was added to a microplate for ELISA (Maxisorp; purchased from NUNC), followed by standing at 4° C. overnight to be immobilized on the wells. Thereafter, each well was washed twice with 200 μl of a Ca- and Mg-free phosphate buffer containing 0.1% Tween-20 (hereinafter referred to as “PBS-T”), and 200 μl of a blocking solution (Dainippon Pharmaceutical Co. Ltd.: BlockAce) was added to each well, and the wells were then allowed to stand at room temperature for 2 hr for blocking.
Separately, phosphate buffered saline (50 μl, pH 7.4) containing 5 μg/ml of anti-phospho-tyrosine antibody (PY20; Transduction Laboratories) was added to a microplate for ELISA (Maxisorp; purchased from NUNC), followed by standing at 4° C. overnight to form a solid phase on the wells. After washing of the plate, 300 μl of a blocking solution was added, followed by standing at room temperature for 2 hr to perform blocking. After washing, the whole quantity of the cell extract was transferred to the wells, and the plate was then allowed to stand at 4° C. overnight. After washing, anti-c-fms antiserum (Upstate Biotechnology, Inc.) was allowed to react at room temperature for one hr, and, after washing, a peroxidase-labeled anti-rabbit Ig antibody (Amersham) was allowed to react at room temperature for one hr. After washing, a chromophoric substrate for peroxidase (Sumitomo Bakelite Co., Ltd.) was added thereto to initiate a reaction. After a suitable level of color development, a reaction termination solution was added to stop the reaction, and the absorbance at 450 nm was measured with a microplate reader. The c-fms phosphorylation activity for each well was determined by presuming the absorbance without the addition of the test compound and with the addition of M-CSF to be 100% c-fms phosphorylation activity and the absorbance without the addition of the test compound and M-CSF to be 0% c-fms phosphorylation activity. The concentration of the test compound was varied on several levels, the c-fms phosphorylation inhibitory rate was determined for each case, and the concentration of the test compound necessary for inhibiting 50% of c-fms phosphorylation (IC50) was calculated.

As for `CC[C@@H](NC(=O)Nc1ccc(Oc2ccnc3cc(OC)c(OC)cc23)cc1)c1ccccc1` [Example 38, N-{4-[(6,7-Dimethoxy-4-quinolyl)oxy]phenyl}-N′-[(1R)-1-phenylpropyl]urea], the IC50 is 5.7 nM.

For the compound `COc1cc2nccc(Oc3ccc(NC(=O)N[C@H]4CCc5ccccc54)cc3)c2cc1OC` [Example 43, N-[(1S)-2,3-Dihydro-1H-1-indenyl]-N′-{4-[(6,7-dimethoxy-4-quinolyl)oxy]phenyl}urea], the IC50 is 3.1 nM.

In the case of `COc1cc2nccc(Oc3ccc(NC(=O)N[C@@H]4CCc5ccccc54)cc3)c2cc1OC` [Example 44, N-[(1R)-2,3-Dihydro-1H-1-indenyl]-N′-{4-[(6,7-dimethoxy-4-quinolyl)oxy]phenyl}urea], the IC50 was determined as 1.8 nM.

Turning to `CC[C@H](NC(=O)Nc1ccc(Oc2ccnc3cc(OC)c(OC)cc23)cc1)c1ccccc1` [Example 37, N-{4-[(6,7-Dimethoxy-4-quinolyl)oxy]phenyl}-N′-[(1S)-1-phenylpropyl]urea], the IC50 was found to be 5 nM. With `COc1cc2nccc(Oc3ccc(NC(=O)NC(C)c4nc(C)c(C)s4)c(C)c3)c2cc1OC` (centres unmarked) [Example 96, N-{4-[(6,7-Dimethoxy-4-quinolyl)oxy]-2-methylphenyl}-N′-[1-(4,5-dimethyl-1,3-thiazol-2-yl)ethyl]urea], the IC50 was found to be 147 nM. For the compound `COc1cc2nccc(Oc3ccc(NC(=O)NC(C)c4nc(C)c(C)s4)c(F)c3)c2cc1OC` (centres unmarked) [Example 95, N-{4-[(6,7-Dimethoxy-4-quinolyl)oxy]-2-fluorophenyl}-N′-[1-(4,5-dimethyl-1,3-thiazol-2-yl)ethyl]urea], the IC50 came to 38.3 nM. For the compound `COc1cc(Oc2ccnc3cc(OC)c(OC)cc23)ccc1NC(=O)N[C@@H](C)c1nccs1` [Example 75, N-{4-[(6,7-Dimethoxy-4-quinolyl)oxy]-2-methoxyphenyl}-N′-[(1S)-1-(1,3-thiazol-2-yl)ethyl]urea], the IC50 was determined as 2.1 nM.

As for `COc1cc(Oc2ccnc3cc(OC)c(OC)cc23)ccc1NC(=O)N[C@H](C)c1nccs1` [Example 76, N-{4-[(6,7-Dimethoxy-4-quinolyl)oxy]-2-methoxyphenyl}-N′-[(1R)-1-(1,3-thiazol-2-yl)ethyl]urea], the IC50 was determined as 7.1 nM. In the case of `COc1cc2nccc(Oc3cc(C)c(NC(=O)NC(C)c4nc(C)c(C)s4)cc3C)c2cc1OC` (centres unmarked) [Example 98, N-{4-[(6,7-Dimethoxy-4-quinolyl)oxy]-2,5-dimethylphenyl}-N′-[1-(4,5-dimethyl-1,3-thiazol-2-yl)ethyl]urea], the IC50 turned out to be 426 nM.

Turning to `COc1cc2nccc(Oc3ccc(NC(=O)NC(C)c4nc(C)c(C)s4)c(C(F)(F)F)c3)c2cc1OC` (centres unmarked) [Example 97, N-[4-[(6,7-Dimethoxy-4-quinolyl)oxy]-2-(trifluoromethyl)phenyl]-N′-[1-(4,5-dimethyl-1,3-thiazol-2-yl)ethyl]urea], the IC50 was 120 nM. The same measure for `COc1cc2nccc(Oc3ccc(NC(=O)NC(C)c4nc(C)c(C)s4)cc3)c2cc1OC` (centres unmarked) [Example 94, N-{4-[(6,7-Dimethoxy-4-quinolyl)oxy]phenyl}-N′-[1-(4,5-dimethyl-1,3-thiazol-2-yl)ethyl]urea]: 53.5 nM.
